Source: US20030104473A1, “Common ligand mimics: benzimidazoles” (priority 2001, published 2003)

Columns and labels:
[1] = molecular target: T1, HMG CoA reductase (HMGCoAR) (UniProt P04035); assay: HMGCoAR kinetic assay, spectrophotometric oxidation of NADPH at 340 nm; type: biochemical; conditions: Example 13 oxidoreductase panel (FIG. 7)
T1 sequence (P04035 1-888): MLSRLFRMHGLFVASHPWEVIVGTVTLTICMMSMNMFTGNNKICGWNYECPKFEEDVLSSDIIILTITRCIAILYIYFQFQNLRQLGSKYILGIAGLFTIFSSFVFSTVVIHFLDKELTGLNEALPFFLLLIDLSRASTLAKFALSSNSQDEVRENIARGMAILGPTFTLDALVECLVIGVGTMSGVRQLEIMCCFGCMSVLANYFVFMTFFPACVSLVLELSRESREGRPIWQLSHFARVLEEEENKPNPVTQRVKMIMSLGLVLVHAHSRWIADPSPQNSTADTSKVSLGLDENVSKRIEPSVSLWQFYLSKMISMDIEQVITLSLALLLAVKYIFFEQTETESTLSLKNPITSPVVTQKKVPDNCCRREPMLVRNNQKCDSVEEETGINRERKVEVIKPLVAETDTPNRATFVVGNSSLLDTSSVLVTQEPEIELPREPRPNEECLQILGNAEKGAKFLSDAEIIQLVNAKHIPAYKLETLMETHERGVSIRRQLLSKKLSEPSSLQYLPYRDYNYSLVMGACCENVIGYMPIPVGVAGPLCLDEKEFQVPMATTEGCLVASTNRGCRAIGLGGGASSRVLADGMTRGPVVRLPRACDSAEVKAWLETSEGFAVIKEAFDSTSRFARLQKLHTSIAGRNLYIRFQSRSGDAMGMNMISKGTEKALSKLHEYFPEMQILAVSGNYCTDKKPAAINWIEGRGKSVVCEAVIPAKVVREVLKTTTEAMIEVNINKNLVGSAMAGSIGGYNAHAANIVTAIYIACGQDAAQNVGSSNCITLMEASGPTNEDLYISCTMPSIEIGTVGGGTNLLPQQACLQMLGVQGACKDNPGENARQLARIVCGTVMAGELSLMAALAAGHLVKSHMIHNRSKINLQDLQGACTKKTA
Protocol: For HMGCoAR analysis, the compounds were screened using a kinetic protocol that spectrophotometrically evaluates oxidation of NADPH.
Stock solutions of each of the reagents were prepared in the following concentrations. Dilutions of the stock solutions were prepared prior to running the assay in the concentrations indicated below. The enzyme was diluted in 1 M NaCl. To prepare the dilution buffer, 10 μl of HMGCoAR (1 mg/ml) was mixed with 133 μl of 3 M NaCl solution and 257 μl of 25 mM KH2PO4 buffer (pH 7.5; containing 50 mM NaCl, […] EDTA (ethylenediaminetetraacetic acid), and 5 mM DTT (dithiothreitol).
The HMGCoAR reaction was monitored at 340 nm prior to and after addition of the inhibitor to detect background reaction with the inhibitor. Solutions of 100 μM of the inhibitors in DMSO were prepared to provide a final DMSO concentration of 2% of the total assay volume. These solutions were incubated for 6 minutes at 25° C. in a 994 μl of a solution containing 25 mM KH2PO4, pH 7.5, 160 μM HMGCoA, 13 μM NADPH, 50 mM NaCl, 1 mM EDTA, and 5 mM DTT. The reaction was then initiated with 5 μl of HMGCoAR enzyme (1:40 dilution of 0.65 mg/ml). After the enzyme was added, the solution was mixed for 20 seconds, and the reaction was run for 10 minutes. After a 50 second lag, the samples were read in a Cary spectrophotometer at 340 nm. Reading of the samples was continued until 300 seconds. […]

[2] = molecular target: Human Aldose Reductase (AR) (Homo sapiens, UniProt P15121); assay: AR kinetic assay, spectrophotometric measurement of enzyme activity at 340 nm; type: biochemical; conditions: Example 13 oxidoreductase panel (FIG. 7)
Protocol: For AR analysis, the compounds were screened using a kinetic protocol that spectrophotometrically measures enzyme activity.
Stock solutions of each of the reagents were prepared in the following concentrations. Dilutions of the stock solutions were prepared prior to running the assay in the concentrations indicated below.
The AR reaction was monitored at 340 nm prior to and after addition of the inhibitor to detect background reaction with the inhibitor. Solutions of 100 μl of the inhibitors in DMSO were prepared to provide a final DMSO concentration of 5% of the total assay volume. These solutions were incubated for 5 minutes at 25° C. in a 990 μl of a solution containing 100 mM potassium phosphate, pH 7.5, 0.3 M ammonium sulfate, 1.0 mM ethylenediaminetetraacetic acid (EDTA), 3.8 μM B-Nicotinamide adenine dinucleotide phosphate (NADPH), 171 μM DL-glyceraldehyde and 0.1 mM DL-dithiothreitol. The reaction was then initiated with 10 μl of Human Aldose Reductase (1:5 dilution of 0.55 mg/ml). After the enzyme was added, the solution was mixed for 20 seconds, and the reaction was run for 10 minutes. After a 50 second lag, the samples were read in a Cary spectrophotometer at 340 nm. Reading of the samples was continued until 300 seconds. The final DMSO concentration in the cuvette was 5%. […]

O=C(O)c1ccc(-c2ccc(-c3nc4ccccc4[nH]3)o2)cc1 [compound 6b, 4-[5-(1H-benzoimidazol-2-yl)-furan-2-yl] benzoic acid]
IC50 [1]: 22 µM
IC50 [2]: 35 µM
